The text below walks through data of patent publication US20100267561A1, “HERBICIDAL PYRIDAZINONE DERIVATIVES” (priority 2007, published 2010).

This assay relates to winter wheat (TRZAW, Triticum aestivum). In words: Test G mixtures of Compound 26 with crop safeners, postemergence plant response. The settings on record: applied alone. Type of assay: in vivo. Here is the method:
This test evaluated the effect of mixtures of Compound 26 with commercial crop safeners cloquintocet-mexyl, mefenpyr-diethyl, and fenchlorazole-ethyl on three plant species. Seeds of winter wheat (TRZAW, Triticum aestivum), winter barley (HORVX, Hordeum vulgare), and wild oat (AVEFA, Avena fatua) (a weed) were planted into a silt loam soil. Plants from these seeds were treated postemergence using test chemicals formulated in a non-phytotoxic solvent mixture that included a surfactant. Plants ranged in height from 6 to 10 cm (2- to 3-leaf stage).
Plants were grown in a greenhouse using supplemental lighting to maintain a photoperiod of about 14 hours; daytime and nighttime temperatures were about 22-26° C. and 15-19° C., respectively. Balanced fertilizer was applied through the watering system. Treatments consisted of Compound 26 and the above mentioned safeners alone and in combination using a spray volume of 281 L/ha. Each treatment was replicated four times. Treated plants and controls were maintained in a greenhouse for 15 days, after which time all treated plants were compared to controls and visually evaluated. Plant response ratings were calculated as the means of the four replicates based on a scale of 0 to 100 where 0 is no effect and 100 is complete control and are summarized in Tables G1 to G3. Because the safeners alone caused no injury at the rates tested, the expected effect of a mixture of Compound 26 with a safener is the same as the observed effect of Compound 26 alone.
The highest application rate of each safener was tested alone to confirm the absence of herbicidal activity on the test species when appled postemergence at 125 g ai/ha. Therefore, an extrapolated result of zero for each safener alone at 16, 31, or 62 g ai/ha was used to calculate the mixture response of Compound 26 and these safener application rates.

Each structure is given as a SMILES string.

For `CCc1c(C)c(-c2ccc(Cl)cc2)nn1-c1c(O)cnn(C)c1=O` [Compound 26, 4-[3-(4-chlorophenyl)-5-ethyl-4-methyl-1H-pyrazol-1-yl]-5-hydroxy-2-methyl-3(2H)-pyridazinone], the “TRZAW Obsd. (observed effect) plant response rating, scale 0 to 100” value (62 g a.i./ha) is listed as 10; the “TRZAW Obsd. (observed effect) plant response rating, scale 0 to 100” value (125 g a.i./ha) turned out to be 9; the “TRZAW Obsd. (observed effect) plant response rating, scale 0 to 100” value (250 g a.i./ha) was 36.
